Reference: patent US9980980B2, “Compounds, compositions and methods for protecting brain health in neurodegenerative disorders” (Amazentis SA, priority 2009, dated 2018)

What was measured:
[1] = target: T1, Aβ(25-35) (Homo sapiens, UniProt P05067); assay: Screening assay for inhibition of Aβ(25-35) aggregation (Thioflavin-T fluorescence); type: biochemical; settings: molecule at purity above 90%; ThT fluorescence, 25° C., 0-120 minutes; read-out: IC50 for inhibiting aggregation of Aβ25-35
T1 construct: Monomeric Aβ(25-35) purchased from Bachem Pharma; purchased Bachem Pharma
Method: Monomeric Aβ(25-35) purchased from Bachem Pharma, was dissolved in distilled sterile water at 4° C., then sonitcated for about 1 minute. The peptide stock solution was then aliquoted and stored at −20° C. All steps were carried out at 4° C. to prevent Aβ(25-35) polymerization.
Fractions of polyphenols were all standardized to 10 μg/mL, before being assessed and stored at −20° C. Measurement of inhibition was performed by following the kinetic of Aβ(25-35) polymerization in a reaction mixture containing 70 μL phosphate buffer, 10 μL Thioflavin-T (100 μM stock solution), 10 μL MeOH (10 mM final concentration) pH 7.2 and 10 μL of Aβ(25-35) (100 μM final concentration) adapting known in the art procedures. LeVine, H., 3rd (1993). “Thioflavine T interaction with synthetic Alzheimer's disease beta-amyloid peptides: detection of amyloid aggregation in solution.” Protein Sci. 2(3): 404-10. When Aβ(25-35) was added to the buffer solution, the solution was sonicated for an additional minute.
To study the inhibitory activity of the fractions, the extracts were diluted to the final concentration in MeOH and 10 μL was added to the mixture at 4° C. Fluorescence spectroscopy was recorded with the excitation at 450 nm and emission at 490 nm. The polymerization kinetics was monitored at 25° C. between 0 and 120 minutes. The IC50 was calculated by using a least-square fitting technique to match the experimental data with a sigmoidal curve. The IC50 was the effective concentration dose of the compound inhibiting the formation of Aβ fibrils to 50% of the control value.

[2] = system: PC12 cells; assay: Inhibition of Aβ-oligomer induced neuronal cell death in PC12 cells (MTT); type: cell-based, Rat; settings: pre-aggregated Aβ (25-35) 10 μM, 24 h; MTT cell viability
Method: The fractions that were able to inhibits oligomer formation were also tested for their ability to inhibit Aβ-oligomer induced neuronal cell death using […], a well known and accepted model of neuronal cell culture.
Beta Amyloid peptide (Aβ) 25-35 trifluoroacetate salt (ref H-1192, lot 2000718) was purchased from Bachem (Bubebdorf, Switzerland). Thiazolyl Blue Tetrazolium Bromide (MTT, ref. M2128) was purchased from Sigma-Aldrich (Saint-Quentin Fallvier, France). Albumin Bovine Fraction V (BSA, ref 160069) was purchased from MPBio (Irvine, USA).
Cells: Rat Pheochromocytoma cells (PC12) were maintained in DMEM (4.5 g/L glucose) supplemented with 10% Horse Serum (HS), 5% Fetal Bovine Serum (FCS) and 100 U/mL penicillin and 100 μg/mL Streptomycin at 37° C. under 5% CO2.
Preparation of Aβ (25-35): It has been reported that Aβ oligomers are more toxic to neurons than monomers. […]
Determination of Hydro-Alcoholic Pomegranate Extracts Ability to Protect PC12 Cells Against Aβ Insult: The ability of Pomegranate extracts to protect PC12 cells from Aβ (25-35) oligomer induced toxicity was determined by measuring reduction of MTT to MTT formazan, which reflects cell viability. […] The level of MTT reduction and thus cell viability was determined by a colorimetric assay measuring the optical density at 595 nm using a microplate reader (BioTek EL808).

Compound | IC50 [1] [µM] | protection of PC12 neuronal cells from the toxicity of Aβ (25-35) oligomers [2]
O=C1O[C@H]2[C@@H]3OC(=O)c4cc(O)c(O)c(O)c4-c4c(O)c(O)c5oc(=O)c6c(c(O)c(O)c7oc(=O)c4c5c76)-c4c(cc(O)c(O)c4O)C(=O)OC[C@H]3OC(O)[C@@H]2OC(=O)c2cc(O)c(O)c(O)c2-c2c1cc(O)c(O)c2O (mixture of isomers) [Punicalagin] | 6 | responsible for the observed activity
Tellimagrandin | 6.8 | –
O=C1OC[C@H]2OC(O)[C@@H]3OC(=O)c4cc(O)c(O)c(O)c4-c4c(cc(O)c(O)c4O)C(=O)O[C@H]3[C@@H]2OC(=O)c2cc(O)c(O)c(O)c2-c2c1cc(O)c(O)c2O (stereo partly drawn) [Pedunculagin] | 11 | –
O=C1OC[C@H]2OC(O)[C@H](O)[C@@H](O)[C@@H]2OC(=O)c2cc(O)c(O)c(O)c2-c2c(O)c(O)c3oc(=O)c4c(c(O)c(O)c5oc(=O)c2c3c54)-c2c1cc(O)c(O)c2O (mixture of isomers) [Punicalin] | 10 | –
O=C(O[C@@H]1O[C@@H]2COC(=O)c3cc(O)c(O)c(O)c3-c3c(cc(O)c(O)c3O)C(=O)O[C@H]([C@H]1O)[C@@H]2O)c1cc(O)c(O)c(O)c1 [Corilagin] | 65 | –
